Each structure is given as a SMILES string.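 Each compound was tested at five concentrations against cells in 96-well plates for 48 hours. At the TGI there is no net growth.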

Test systems include A498 renal; CCRF-CEM leukemia; DU-145 prostate; HL-60(TB) leukemia; HOP-62 NSCLC; HS 578T breast; MALME-3M melanoma; MDA-N; NCI-H226 lung; NCI-H23 lung; OVCAR-4 ovarian; RPMI-8226 leukemia; SF-268 CNS; SK-MEL-28 melanoma; SK-MEL-5 melanoma; SNB-75 CNS; TK-10 renal; UO-31 renal; SR leukemia.
Common to all, as to test: inhibition of tumour cell growth, NCI panel, 48 h

For `CCOC(=O)/C(C#N)=C/c1ccc2c(-c3c(OCC)ccc4cc(/C=C(\C#N)C(=O)OCC)ccc34)c(OCC)ccc2c1`, the TGI with A498 renal, in the assay on CCRF-CEM leukemia, in the assay with DU-145 prostate, with HL-60(TB) leukemia, in the assay with HOP-62 NSCLC and in the assay with HS 578T breast was above 100 µM throughout. Besides, the TGI with MALME-3M melanoma, in the assay with MDA-N, in the assay with NCI-H226 lung, in the assay on NCI-H23 lung, in the assay on OVCAR-4 ovarian and in the assay with RPMI-8226 leukemia was above 100 µM in each case. In addition, the TGI in the assay on SF-268 CNS, with SK-MEL-28 melanoma, with SK-MEL-5 melanoma, in the assay with SNB-75 CNS, in the assay with TK-10 renal and with UO-31 renal was above 100 µM throughout.
On to `CC(=O)OCC1OC(On2ccccc2=S)C(OC(C)=O)C(OC(C)=O)C1OC(C)=O` (configuration not stated), for which the TGI in the assay with A498 renal is above 100 µM; in the assay with CCRF-CEM leukemia, 34.5 µM; in the assay on DU-145 prostate, above 100 µM; with HL-60(TB) leukemia, above 100 µM; in the assay with HOP-62 NSCLC, above 100 µM; in the assay on HS 578T breast it was above 100 µM. Also, the TGI in the assay on MALME-3M melanoma, in the assay with MDA-N, in the assay on NCI-H23 lung, with OVCAR-4 ovarian, with SF-268 CNS and in the assay with SK-MEL-28 melanoma was above 100 µM in each case. Besides, the TGI with SK-MEL-5 melanoma, with SNB-75 CNS, with TK-10 renal and in the assay with UO-31 renal was above 100 µM in each case.
Turning to `CC/C(=N\NC(=O)c1cccnc1)c1ccc2c(c1)OCCO2`, the TGI with A498 renal was above 100 µM; with CCRF-CEM leukemia, above 100 µM; in the assay with DU-145 prostate it was above 100 µM; in the assay with HL-60(TB) leukemia, above 100 µM; with HOP-62 NSCLC, above 100 µM; with HS 578T breast, 93.7 µM. Besides, the TGI with MALME-3M melanoma was 91.5 µM; in the assay with MDA-N it was above 100 µM; with NCI-H226 lung it was above 100 µM; in the assay on NCI-H23 lung, above 100 µM; with OVCAR-4 ovarian, above 100 µM; with RPMI-8226 leukemia, above 100 µM. For the same compound, the TGI in the assay with SF-268 CNS, in the assay on SK-MEL-28 melanoma, with SK-MEL-5 melanoma, in the assay on SNB-75 CNS, with TK-10 renal and in the assay on UO-31 renal was above 100 µM each time.
`S=c1[nH]nc(COc2ccc3c(c2)CCCC3)n1/N=C/c1ccc(Cl)cc1`: the TGI in the assay on CCRF-CEM leukemia was determined as 55.8 µM; in the assay with DU-145 prostate it was 33 µM; with HL-60(TB) leukemia it was 40.7 µM; in the assay on HOP-62 NSCLC, 32.3 µM; in the assay with HS 578T breast it was 39.7 µM; in the assay with MALME-3M melanoma, 33.1 µM. In addition, the TGI in the assay on MDA-N was determined as 33.5 µM; in the assay on NCI-H23 lung it was 35.9 µM; in the assay with OVCAR-4 ovarian, 32.8 µM; in the assay with RPMI-8226 leukemia, 36.1 µM; with SF-268 CNS, 43 µM; in the assay with SK-MEL-28 melanoma, 33.1 µM. The values for the TGI in the assay on SK-MEL-5 melanoma, with TK-10 renal and with UO-31 renal were 29.3 µM, 38.6 µM and 31.4 µM, respectively.
Consider `COC(CN(C)C(=O)C(C)NC(=O)c1ccccc1)OC` (configuration not stated), for which the TGI in the assay on CCRF-CEM leukemia, in the assay with DU-145 prostate, in the assay with HS 578T breast, in the assay on MALME-3M melanoma, in the assay with MDA-N and with NCI-H226 lung was above 100 µM each time. Moreover, the TGI in the assay on NCI-H23 lung, in the assay with OVCAR-4 ovarian, in the assay on RPMI-8226 leukemia, with SF-268 CNS, with SK-MEL-5 melanoma and with SNB-75 CNS was above 100 µM throughout. Moreover, the TGI with SR leukemia and with TK-10 renal was above 100 µM each time.
Regarding `CC(C)=CCC[C@]1(C)CC[C@]2(C)C3CCC(=C(C)C)[C@@H](CCCO)[C@]3(C)CC[C@@]2(C)C1` (some centres not stated), the TGI was above 100 µM in the assay on A498 renal; above 100 µM in the assay on CCRF-CEM leukemia; above 100 µM in the assay with DU-145 prostate; 84.3 µM in the assay with HL-60(TB) leukemia; above 100 µM in the assay with HOP-62 NSCLC; above 100 µM in the assay with HS 578T breast. In addition, the TGI in the assay on MALME-3M melanoma, with MDA-N, in the assay with NCI-H226 lung, in the assay on NCI-H23 lung, in the assay with OVCAR-4 ovarian and with RPMI-8226 leukemia was above 100 µM throughout. In addition, the TGI with SF-268 CNS was above 100 µM; in the assay on SK-MEL-28 melanoma, above 100 µM; with SK-MEL-5 melanoma, above 100 µM; with SNB-75 CNS, above 100 µM; in the assay with TK-10 renal it was 44.3 µM; with UO-31 renal, 34 µM.
As to `O=c1c2ccccc2nc2n1NC(c1c(Cl)cccc1Cl)N2c1cccc(Cl)c1` (configuration not stated), the TGI with CCRF-CEM leukemia is above 100 µM; in the assay with DU-145 prostate it was above 100 µM; in the assay with HL-60(TB) leukemia, above 100 µM; in the assay on HOP-62 NSCLC, above 100 µM; with HS 578T breast, above 100 µM; in the assay with MALME-3M melanoma, 29.7 µM. For the same compound, the TGI in the assay on MDA-N is above 100 µM; in the assay on NCI-H226 lung it was 6.36 µM; in the assay with NCI-H23 lung, 56.7 µM; in the assay on OVCAR-4 ovarian it was 6.73 µM; in the assay with RPMI-8226 leukemia it was above 100 µM; in the assay with SF-268 CNS, above 100 µM. The TGI was above 100 µM in the assay on SK-MEL-28 melanoma; 65.5 µM with SK-MEL-5 melanoma; 9.92 µM in the assay with SNB-75 CNS; above 100 µM in the assay on SR leukemia; 21.8 µM in the assay on TK-10 renal; 7.39 µM in the assay on UO-31 renal.
For `CC1C(c2ccc(F)cc2)c2cc3c(cc2OC1N1CCCC1)OCO3` (configuration not stated), the TGI is above 100 µM in the assay with CCRF-CEM leukemia; above 100 µM in the assay with DU-145 prostate; above 100 µM in the assay on HOP-62 NSCLC; 54.8 µM with HS 578T breast; above 100 µM in the assay with MDA-N; above 100 µM in the assay on NCI-H23 lung. Also, the TGI in the assay with SF-268 CNS, in the assay on SK-MEL-28 melanoma, in the assay on SK-MEL-5 melanoma, in the assay on SNB-75 CNS, in the assay on SR leukemia and with TK-10 renal was above 100 µM each time. The compound also yielded a TGI with UO-31 renal above 100 µM.
With `CCC1(C)C=Cc2c(cc(OC)c3c(=O)c4ccccc4n(C)c23)O1` (configuration not stated), the TGI with A498 renal, in the assay on CCRF-CEM leukemia, in the assay on DU-145 prostate, in the assay with HOP-62 NSCLC, in the assay on HS 578T breast and in the assay on MALME-3M melanoma was above 10 µM throughout. The TGI in the assay with MDA-N, with NCI-H226 lung, in the assay with NCI-H23 lung, in the assay with OVCAR-4 ovarian, in the assay with RPMI-8226 leukemia and in the assay on SF-268 CNS was above 10 µM throughout. Moreover, the TGI was above 10 µM in the assay with SK-MEL-28 melanoma; above 10 µM with SK-MEL-5 melanoma; above 10 µM in the assay with SNB-75 CNS; above 10 µM in the assay with TK-10 renal; 2.39 µM with UO-31 renal.

Values taken from PubChem BioAssay (NCI).
